# Experimental data reported in ChEMBL document CHEMBL4354827, “Discovery of Novel, Potent, Brain-Permeable, and Orally Efficacious Positive Allosteric Modulator of α7 Nicotinic Acetylcholine Receptor [4-(5-(4-Chlorophenyl)-4-methyl-2-propionylthiophen-3-yl)benzenesulfonamide]: Structure-Activity Relationship and Preclinical Characterization” (J Med Chem, 2020).
# Key:
# [1] = Drug metabolism in rat liver microsomes assessed as metabolic rate at 1 uM preincubated for 5 mins followed by NADPH addition after 30 mins by LC-MS/MS analysis; assay type: ADME, Microsome; conditions: 0.5 h
# Rattus norvegicus [2] = experiment: Memory enhancement effect in time-delay induced Wistar rat model of amnesia assessed as exploration time for object1 at 1 mg/kg, po administered as single dose after acquisition trial by novel object recognition test (reference value: 19.09 sec); assay type: functional
# [3] = molecular target: Neuronal acetylcholine receptor subunit alpha-7 (Homo sapiens, UniProt P36544); experiment: Positive allosteric modulatory activity against alpha7 nAChR in human IMR-32 cells assessed as potentiation of PNU-282987-induced Ca2+ […] at 1 uM by FLIPR assay relative to control; assay type: cell-based
# Rattus norvegicus [4] = experiment: Improvement in social recognition time delay-induced Sprague-Dawley rat model of amnesia assessed as increase in reduction in social investigation time at 3 mg/kg, po administered as single dose prior to 1 hr training and measured after 30 mins (reference value: 0.39%); assay type: functional; set-up: scale not given: the % may be the effect or the level left
# Rattus norvegicus [5] = experiment: Memory enhancement effect in scopolamine-induced Wistar rat model of amnesia assessed as exploration time for object2 in acquisition trial at 0.05 mg/kg, po administered as single dose and measured on day 8 by novel object recognition test (reference value: 15.63 sec); assay type: functional
# Rattus norvegicus [6] = experiment: Memory enhancement effect in scopolamine-induced Wistar rat model of amnesia assessed as exploration time for familiar object in retention trial at 0.05 mg/kg, po administered as single dose and measured on day 9 by novel object recognition test (reference value: 8.59 sec); assay type: functional
# [7] = Unbound brain-to-plasma concentration ratio in Wistar rat at 10 mg/kg, po after 48 hrs by LC-MS/MS analysis; assay type: ADME, organism-based; conditions: read-out: K(p,uu,brain)
# [8] = Brain to plasma permeability coefficient, Kp in Wistar rat at 10 mg/kg, po after 1 hr by LC-MS/MS analysis; assay type: ADME, organism-based
# [9] = Tmax in Beagle dog at 10 mg/kg, po after 0.25 to 144 hrs by LC-MS/MS analysis; assay type: ADME, organism-based, Canis lupus familiaris; conditions: in vivo
# [10] = Drug concentration in Wistar rat plasma at 10 mg/kg, po after 24 hrs by LC-MS/MS analysis; assay type: ADME, organism-based
# Rattus norvegicus [11] = experiment: Memory enhancement effect in time-delay induced Wistar rat model of amnesia assessed as exploration time for object2 in acquisition trial at 0.15 mg/kg, po for 7 days and measured on day 8 by novel object recognition test (reference value: 11.76 sec); assay type: functional
# Rattus norvegicus [12] = experiment: Improvement in social recognition time delay-induced Sprague-Dawley rat model of amnesia assessed as reduction in recognition index at 0.50 mg/kg, po for 7 days and measured on day 9 (reference value: 1.05); assay type: functional
# Rattus norvegicus [13] = experiment: Memory enhancement effect in time-delay induced Wistar rat model of amnesia assessed as increase in exploration time for novel object in retention trial at 3 mg/kg, po administered as single dose and measured on day 9 by novel object recognition test (reference value: 12.06 sec); assay type: functional
# [14] = Brain to plasma permeability coefficient, Kp in Wistar rat at 10 mg/kg, po after 24 hrs by LC-MS/MS analysis; assay type: ADME, organism-based
# Rattus norvegicus [15] = experiment: Memory enhancement effect in time-delay induced Wistar rat model of amnesia assessed as exploration time for familiar object in retention trial at 0.5 mg/kg, po for 7 days and measured on day 8 by novel object recognition test (reference value: 10.20 sec); assay type: functional
# Rattus norvegicus [16] = experiment: Memory enhancement effect in scopolamine-induced Wistar rat model of amnesia assessed as increase in novel object discrimination index at 0.05 mg/kg, po administered as single dose and measured on day 9 by novel object recognition test (reference value: 0.21); assay type: functional
# [17] = Cmax in Beagle dog at 10 mg/kg, po after 0.25 to 144 hrs by LC-MS/MS analysis; assay type: ADME, organism-based, Canis lupus familiaris; set-up: dose 10 mg/kg, route oral; conditions: in vivo
# Rattus norvegicus [18] = experiment: Improvement in social recognition scopolamine-induced Sprague-Dawley rat model of amnesia assessed as reduction in recognition index at 0.05 mg/kg, po for 7 days measured after 24 hrs (reference value: 0.93); assay type: functional
# [19] = Volume of distribution at steady state in Beagle dog at 1 mg/kg, iv after 0.083 to 144 hrs by LC-MS/MS analysis; assay type: ADME, organism-based, Canis lupus familiaris; conditions: in vivo, read-out: Vdss
# Rattus norvegicus [20] = experiment: Memory enhancement effect in scopolamine-induced Wistar rat model of amnesia assessed as increase in discrimination index at 0.05 mg/kg, po for 7 days and measured on day 8 by novel object recognition test (reference value: 0.21); assay type: functional
# [21] = Brain to plasma permeability coefficient, Kp in Wistar rat at 10 mg/kg, po after 4 hrs by LC-MS/MS analysis; assay type: ADME, organism-based
# Rattus norvegicus [22] = experiment: Memory enhancement effect in time-delay induced Wistar rat model of amnesia assessed as exploration time for novel object in retention trial at 0.5 mg/kg, po for 7 days and measured on day 8 by novel object recognition test (reference value: 15.37 sec); assay type: functional
# Rattus norvegicus [23] = experiment: Memory enhancement effect in scopolamine-induced Wistar rat model of amnesia assessed as exploration time for familiar object in retention trial at 0.15 mg/kg, po administered as single dose and measured on day 9 by novel object recognition test (reference value: 8.59 sec); assay type: functional
# Rattus norvegicus [24] = experiment: Memory enhancement effect in time-delay induced Wistar rat model of amnesia assessed as exploration time for familiar object at 3 mg/kg, po administered as single dose after acquisition trial by novel object recognition test (reference value: 10.6 sec); assay type: functional
# [25] = Cmax in Wistar rat plasma at 10 mg/kg, po after 1 to 144 hrs by LC-MS/MS analysis; assay type: ADME, organism-based; set-up: dose 10 mg/kg, route oral
# [26] = Drug concentration in Wistar rat plasma at 10 mg/kg, po after 1 hr by LC-MS/MS analysis; assay type: ADME, organism-based
# Rattus norvegicus [27] = experiment: Improvement in social recognition scopolamine-induced Sprague-Dawley rat model of amnesia assessed as increase in reduction in social investigation time at 1 mg/kg, po administered as single dose prior to 1 hr training and measured after 30 mins (reference value: 9.81%); assay type: functional; set-up: scale not given: the % may be the effect or the level left
# Rattus norvegicus [28] = experiment: Memory enhancement effect in time-delay induced Wistar rat model of amnesia assessed as increase in novel object discrimination index at 1 mg/kg, po administered as single dose and measured on day 9 by novel object recognition test (reference value: 0.03); assay type: functional
# [29] = Clearance in Wistar rat at 1 mg/kg, iv after 0.083 to 144 hrs by LC-MS/MS analysis; assay type: ADME, organism-based; conditions: in vivo
# Cytochrome P450 3A4 = Cytochrome P450 3A4 (Homo sapiens, UniProt P08684); experiment: Inhibition of CYP3A4 (unknown origin) up to 10 uM; assay type: ADME
# Rattus norvegicus [30] = experiment: Memory enhancement effect in scopolamine-induced Wistar rat model of amnesia assessed as exploration time for object2 in acquisition trial at 0.5 mg/kg, po administered as single dose and measured on day 8 by novel object recognition test (reference value: 15.63 sec); assay type: functional
# Rattus norvegicus [31] = experiment: Memory enhancement effect in scopolamine-induced Wistar rat model of amnesia assessed as increase in discrimination index at 0.15 mg/kg, po for 7 days and measured on day 8 by novel object recognition test (reference value: 0.21); assay type: functional
# Rattus norvegicus [32] = experiment: Improvement in social recognition scopolamine-induced Sprague-Dawley rat model of amnesia assessed as increase in reduction in social investigation time at 0.05 mg/kg, po for 7 days measured after 24 hrs (Rvb =6.59%); assay type: functional; set-up: scale not given: the % may be the effect or the level left
# Sequence of Cytochrome P450 3A4 (P08684 whole entry): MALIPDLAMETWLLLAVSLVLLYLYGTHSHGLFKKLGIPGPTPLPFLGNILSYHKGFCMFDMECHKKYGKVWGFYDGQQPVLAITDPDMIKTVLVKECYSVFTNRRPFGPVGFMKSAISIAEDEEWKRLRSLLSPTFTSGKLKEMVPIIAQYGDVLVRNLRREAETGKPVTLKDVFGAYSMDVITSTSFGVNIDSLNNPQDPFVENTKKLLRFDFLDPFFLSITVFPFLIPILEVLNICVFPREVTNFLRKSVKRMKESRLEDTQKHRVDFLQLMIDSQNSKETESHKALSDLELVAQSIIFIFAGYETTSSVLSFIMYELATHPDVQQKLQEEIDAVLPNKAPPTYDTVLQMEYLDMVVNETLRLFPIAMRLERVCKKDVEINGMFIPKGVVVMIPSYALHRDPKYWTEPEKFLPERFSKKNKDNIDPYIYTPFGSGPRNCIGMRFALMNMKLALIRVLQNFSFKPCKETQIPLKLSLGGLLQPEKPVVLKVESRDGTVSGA
# Sequence of Neuronal acetylcholine receptor subunit alpha-7 (P36544 whole entry): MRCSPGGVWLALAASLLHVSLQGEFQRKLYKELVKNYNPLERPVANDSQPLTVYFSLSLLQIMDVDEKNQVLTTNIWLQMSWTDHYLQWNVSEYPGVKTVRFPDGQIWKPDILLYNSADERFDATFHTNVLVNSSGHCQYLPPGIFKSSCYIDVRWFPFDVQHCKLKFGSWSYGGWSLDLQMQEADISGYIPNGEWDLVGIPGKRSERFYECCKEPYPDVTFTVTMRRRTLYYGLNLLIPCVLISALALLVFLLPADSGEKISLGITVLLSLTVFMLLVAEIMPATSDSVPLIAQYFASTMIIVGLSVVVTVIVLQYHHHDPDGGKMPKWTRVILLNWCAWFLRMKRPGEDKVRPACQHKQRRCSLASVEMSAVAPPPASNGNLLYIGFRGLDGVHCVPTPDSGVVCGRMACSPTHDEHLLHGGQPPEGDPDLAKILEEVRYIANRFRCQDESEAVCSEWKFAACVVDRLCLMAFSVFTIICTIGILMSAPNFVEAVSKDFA
compound,measurement,setting,value
CCC(=O)c1sc(-c2ccc(Cl)cc2)c(C)c1-c1ccc(S(N)(=O)=O)cc1,Drug metabolism,[1],0.01 nmol/min/mg
same,Time,Rattus norvegicus [2],20.6 s
same,fold change (FC),[3],22
same,Activity,Rattus norvegicus [4],52.87%
same,Time,Rattus norvegicus [5],18.31 s
same,Time,Rattus norvegicus [6],8.03 s
same,Kp uu at 48 h,[7],1.15
same,Kp at 1 h,[8],4.63
same,Tmax,[9],1.5 h
same,concentration at 24 h,[10],740 nM
same,Time,Rattus norvegicus [11],13.58 s
same,Activity_index,Rattus norvegicus [12],0.54
same,Time,Rattus norvegicus [13],26.25 s
same,Kp at 24 h,[14],8.85
same,Time,Rattus norvegicus [15],4.9 s
same,Activity_index,Rattus norvegicus [16],0.3
same,Cmax,[17],5000 nM
same,Activity_index,Rattus norvegicus [18],0.56
same,Vd,[19],4 L/kg
same,Activity_index,Rattus norvegicus [20],0.3
same,Kp at 4 h,[21],10.7
same,Time,Rattus norvegicus [22],19.64 s
same,Time,Rattus norvegicus [23],4.86 s
same,Time,Rattus norvegicus [24],5.9 s
same,Cmax,[25],900 nM
same,concentration at 1 h,[26],870 nM
same,Activity,Rattus norvegicus [27],48.49%
same,Activity_index,Rattus norvegicus [28],0.44
same,clearance,[29],1.3 mL/min/kg
same,inhibition (INH),Cytochrome P450 3A4,Not Active
same,Time,Rattus norvegicus [30],16.55 s
same,Activity_index,Rattus norvegicus [31],0.5
same,Activity,Rattus norvegicus [32],44.4%
